# Test results published in PMC7355955, “Validation of Pharmacological Protocols for Targeted Inhibition of Canalicular MRP2 Activity in Hepatocytes Using [^99mTc]mebrofenin Imaging in Rats” (Pharmaceutics, 2020).
# Like-named read-outs stand apart in the source and are kept apart here.
# How the values were obtained:
# human MRP2 = human MRP2 (Homo sapiens, UniProt Q92887); assay: cell-based
# Protocol: Stably transfected MDCK-II-MRP2 cells overexpressing human MRP2 were a kind gift from A. Schinkel ([…], The Netherlands). Cells were cultured in a controlled atmosphere at 37 °C, 5% CO2. The culture medium was composed of DMEM Glutamax (Dulbecco’s Modified Eagle Medium, 4.5 g/L D-glucose, pyruvate) supplemented with 10% fetal bovine serum and 1% antibiotics (penicillin and streptomycin 5000 U/mL). MRP2-mediated transport was assessed using the calcein-AM assay. Cells were seeded in 24-well plates (30,000 cells per well) in 500 μL of culture medium. […] After 30 min at 37 °C, the incubation buffer was removed and cell monolayers were rapidly washed with 300 μL of ice-cold buffer (Dulbecco’s phosphate buffered saline + CaCl2 + MgCl2). Cells were then lysed by 10 min of incubation with 500 μL of NaOH (10 mM). […] For each inhibitor, uptake data were normalized to describe the extent of inhibition from 0 to maximal (100%) inhibition.
# rats = settings: rat, in vivo
# [1] = test system: hepatic OATP and MRP2 activity; settings: rat; lowest doses: DTZ 10 mg/kg s.c., CsA 0.01 mg/kg i.v.
# Protocol: [^99mTc]mebrofenin scintigraphy was performed using a clinical SPECT-CT camera (Symbia®, Siemens, Knoxville, TN, USA) with a Low Energy High Resolution (LEHR) collimator. In each session, 3 rats were placed in a row on the scanner bed and catheters were inserted in the caudal vein. Experiments were performed for control conditions or after injection of the different transporter inhibitors. RIF (40 mg/kg intravenously, i.v.) was injected immediately before [^99mTc]mebrofenin as previously described [33]. […] Rats were injected with [^99mTc]mebrofenin (39 ± 4 MBq, i.v.) followed by dynamic planar acquisitions. Acquisitions were terminated by a X-ray CT scan.
# Images were analyzed with PMOD® software (version 3.9, PMOD Technologies LLC). Regions of interest (ROI) were manually drawn on the liver, intestine, heart (= image-derived blood curve) and urinary bladder. Corresponding TACs were generated by plotting the mean radioactivity amount in each ROI normalized to the injected dose in each animal (cps/MBq) versus time.
# [2] = test system: hepatic OATP and MRP2 activity; design: method as in PMID 23440558; settings: cited from earlier work
# [3] = mice, lowest tested dose 12.5 mg/kg i.v. followed by 3.12 mg/kg intraperitoneal
# Chain of human MRP2 (Q92887 whole entry): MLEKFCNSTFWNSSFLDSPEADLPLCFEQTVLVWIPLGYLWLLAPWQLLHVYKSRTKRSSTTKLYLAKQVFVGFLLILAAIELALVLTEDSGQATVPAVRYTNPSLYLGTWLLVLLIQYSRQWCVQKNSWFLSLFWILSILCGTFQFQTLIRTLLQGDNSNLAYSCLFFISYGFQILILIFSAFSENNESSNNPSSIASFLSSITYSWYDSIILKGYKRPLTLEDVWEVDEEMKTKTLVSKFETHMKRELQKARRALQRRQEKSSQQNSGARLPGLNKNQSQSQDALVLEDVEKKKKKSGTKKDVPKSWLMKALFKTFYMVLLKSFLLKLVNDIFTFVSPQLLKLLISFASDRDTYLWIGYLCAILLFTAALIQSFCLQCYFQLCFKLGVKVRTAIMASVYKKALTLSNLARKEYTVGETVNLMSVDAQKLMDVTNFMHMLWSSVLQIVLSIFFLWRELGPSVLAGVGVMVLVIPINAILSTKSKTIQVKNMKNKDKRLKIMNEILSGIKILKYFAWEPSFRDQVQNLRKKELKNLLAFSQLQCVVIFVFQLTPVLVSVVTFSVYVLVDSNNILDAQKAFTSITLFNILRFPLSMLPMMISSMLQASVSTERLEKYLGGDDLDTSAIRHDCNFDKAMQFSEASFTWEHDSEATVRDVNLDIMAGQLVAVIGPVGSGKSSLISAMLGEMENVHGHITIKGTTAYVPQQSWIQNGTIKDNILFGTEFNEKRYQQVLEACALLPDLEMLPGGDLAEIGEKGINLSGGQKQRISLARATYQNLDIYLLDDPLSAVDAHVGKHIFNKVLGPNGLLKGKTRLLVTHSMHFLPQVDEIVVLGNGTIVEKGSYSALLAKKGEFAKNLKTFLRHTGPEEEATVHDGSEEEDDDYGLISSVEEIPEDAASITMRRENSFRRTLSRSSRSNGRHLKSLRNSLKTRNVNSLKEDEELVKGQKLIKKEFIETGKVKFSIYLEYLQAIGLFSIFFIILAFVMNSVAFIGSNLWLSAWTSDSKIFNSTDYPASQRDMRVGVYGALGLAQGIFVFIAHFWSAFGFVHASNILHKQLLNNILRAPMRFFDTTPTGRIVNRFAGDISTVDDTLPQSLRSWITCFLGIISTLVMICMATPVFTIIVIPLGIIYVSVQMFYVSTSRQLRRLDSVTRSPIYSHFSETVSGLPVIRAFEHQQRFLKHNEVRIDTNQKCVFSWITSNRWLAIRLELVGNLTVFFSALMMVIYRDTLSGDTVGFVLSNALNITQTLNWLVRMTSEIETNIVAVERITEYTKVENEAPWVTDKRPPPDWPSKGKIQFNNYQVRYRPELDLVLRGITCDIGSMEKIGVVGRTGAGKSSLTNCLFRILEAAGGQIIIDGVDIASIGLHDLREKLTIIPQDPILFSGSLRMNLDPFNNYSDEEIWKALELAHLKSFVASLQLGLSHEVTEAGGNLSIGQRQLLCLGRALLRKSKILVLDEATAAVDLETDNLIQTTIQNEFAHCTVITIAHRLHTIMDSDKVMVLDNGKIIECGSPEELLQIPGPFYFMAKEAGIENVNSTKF
"concentration achieving full MRP2 inhibition (human MRP2; MDCK-II-MRP2 cells, calcein-AM assay) [µM]",Structure (SMILES),IC50 (human MRP2) [µM],tolerance of i.v. doses higher than 3 mg/kg (rats),"outcome of intravenous injection (rats; iv, 40 mg/kg)",effect on initial liver uptake (AUCRliver/blood 0–3 min) of [99mTc]mebrofenin [1],"change in AUCRbile/liver of [99mTc]mebrofenin (biliary excretion) ([2]; mice, higher doses of RIF) [%]","change in AUCRbile/liver of [99mTc]mebrofenin (biliary excretion) [2, 3] [%]","effect on liver uptake of [99mTc]mebrofenin [2, 3]",fold decrease in AUCRbile/liver with MRP2-deficiency ([2]; MRP2-deficient mice)
–,"COc1ccc([C@@H]2Sc3ccccc3N(CCN(C)C)C(=O)[C@@H]2OC(C)=O)cc1 [DTZ, Diltiazem]",4.4,poor tolerance,lethal,did not affect,–,–,–,–
> 500,"CO[C@H]1/C=C/O[C@@]2(C)Oc3c(C)c(O)c4c(O)c(c(/C=N/N5CCN(C)CC5)c(O)c4c3C2=O)NC(=O)/C(C)=C\C=C\[C@H](C)[C@H](O)[C@@H](C)[C@@H](O)[C@@H](C)[C@H](OC(C)=O)[C@@H]1C [RIF, rifampicin]",210,–,–,–,−94,−25,did not impact,–
–,Cc1cc(C)c(NC(=O)CN(CC(=O)[O-])CC(=O)[O-])c(C)c1Br.Cc1cc(C)c(NC(=O)CN(CC(=O)[O-])CC(=O)[O-])c(C)c1Br.[99Tc+4] [[^99mTc]mebrofenin],–,–,–,–,–,–,–,~ 10 fold
